Reference: patent publication US7169785B2, “Methods and compositions of novel triazine compounds” (Reddy US Therapeutics, Inc., priority 2001, dated 2007)
Read-outs that look alike come from different tables or passages of the source.

Legend:
[1] = system: Human aortic smooth muscle cells; test: Smooth muscle cell proliferation assay (anti-proliferation assay, perlecan); type: cell-based; conditions: Homo sapiens, anti-proliferation assay (perlecan)
Description: Human aortic smooth muscle cells (Clonetics) were used. Cells were grown in basal medium containing 5% fetal bovine serum supplemented with growth factors, basic fibroblast growth factor, epidermal growth factor and insulin. […] The cells were then serum starved for 24 h to induce quiescence. Fresh growth medium containing no compound or 10 μM compound was then added and further incubated for 24 h. Cell number was determined by using a cell proliferation assay kit (Celltiter96 AQueous from Promega).

IL-6 [2] = test: TNF-α-induced IL-6 production determined by IL-6 ELISA in HAEC; type: cell-based, human; conditions: for activity at 10 µM / activity at 5 µM: Homo sapiens, 24 h; for Inhibition of TNF-induced IL6 production: class of % of control IL6 production
HAEC = test: Toxicity to endothelial cells (HAEC) when TNF stimulated; type: cell-based
Description: (§1) Human aortic endothelial cells (HAEC, Clonetics) were cultured according to manufacturer in growth medium (Clonetics): basal medium containing human epidermal growth factor, hydrocortisone, vascular endothelial growth factor, heparin binding growth factor-B, long R3-insulin-like growth factor-1, ascorbic acid, gentamicin/amphotericin and 5% FBS. These cell were allowed to reach at least 90% confluency before subjected to experimental treatments. Glycated human serum albumin (G-HSA) was from US Biologicals. Tumor necrosis factor α was from R&D Systems.
[…] All treatments, compound-added and controls were carried out in serum free media containing 0.2% albumin. Media from all conditions were collected and used for IL-6 ELISA.

heparanase = test: Induction and measurement of endothelial heparanase protein (TNF-induced heparanase secretion); type: cell-based, human; conditions: for inhibition at 5 µM / inhibition at 10 µM: Homo sapiens; for Relative Activity: inhibition of TNF-induced heparanase secretion, scale at 5 uM compound concentration
Description: Experiments were carried out on human microvascular endothelial cells (HMVEC) grown in 48-well plates (˜90% confluency). To induce heparanase activity, culture media was replaced with 200 μl Dulbecco's Modified Eagle's medium (DMEM) complemented with 1% bovine serum albumin (BSA) and with or without stimulants (5 ng/ml TGF-alpha, 1 ng/ml IL 1alpha, 200 ng/ml VEGF or other stimulants, cytokines, or inducers as required). The secreted proteins were analyzed by SDS/PAGE and heparanase protein was detected by immunoblotting using polyclonal anti-human heparanase antibody. The changes of heparanase expression determined by densitometric analysis. The induction and measurement of endothelial heparanase protein reported in the Tables herein were carried out according to this Example.

IL-6 [3] = test: AGE (G-HSA)-induced inflammatory response determined by IL-6 ELISA in HAEC; type: cell-based, human; conditions: for activity at 10 µM: 24 h, IL6, read-out: % IL6 production compare to AGE stimulation of IL6 (100%); for IC50: IL6, unit inferred, read-out: IC50 (AGE stimulation of IL6)
Procedure, shortened: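 Human aortic endothelial cells grown to ≥90% confluence, then treated with compounds and stimuli in serum-free medium with 0.2% albumin. Secreted IL-6 in collected media measured by sandwich ELISA (2 ug/ml capture, 200 ng/ml biotinylated detection antibody, streptavidin-HRP), read at 450 nm.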

endothelial cells = test: Toxicity to endothelial cells when AGE stimulated; type: cell-based, human
Description: as §1, with “Glycated human serum albumin (G-HSA) was from US Biologicals.” left out
All treatments, compound-added and controls were carried out in serum free media containing 0.2% albumin. Media from all conditions were collected and used for IL-6 ELISA.

[4] = Compds tested @ 10 uM, HAEC, IL6, read-out: % IL6 production compare to TNF stimulation of IL6 (100%)
[5] = Homo sapiens, Compds tested @ 10 uM
[6] = HAEC, @ 5 uM, read-out: % IL6 production compare to TNF stimulation of IL6 (100%)
[7] = endothelial cells, AGE stimulated

SMILES: CCN(CC)c1ccc(Nc2nc(NCC3CCCN3CC)nc(NC3CCCCCC3)n2)cc1Cl (centres unmarked) [Compound 26, N^2-[3-chloro-4-(diethylamino)phenyl]-N^4-cycloheptyl-N^6-[(1-ethyl-2-pyrrolidinyl)methyl]-1,3,5-triazine-2,4,6-triamine]
- IC50 ([1]; read-out: Activity (note 1)): > 7 µM
- IC50 ([1]; read-out: Avg IC-50): 7.73 µM
- activity at 10 µM (IL-6 [2]; [4]): 1%
- cells floating (HAEC; TNF-stimulated HAEC, compound @ 10 uM): > 50%

SMILES: CCN1CCCC1CNc1nc(Nc2ccccc2C)nc(NC2CCCCCC2)n1 (centres unmarked) [Compound 35, N^2-cycloheptyl-N^4-[(1-ethyl-2-pyrrolidinyl)methyl]-N^6-(2-methylphenyl)-1,3,5-triazine-2,4,6-triamine]
- inhibition at 5 µM (heparanase): 53%
- Relative Activity (heparanase): ++ (30–40% inhibition)
- activity at 10 µM (IL-6 [3]; [5]): 4%
- activity at 10 µM (IL-6 [2]; [4]): 34%

SMILES: CCN1CCCC1CNc1nc(Nc2ccc(OC)c(F)c2)nc(NC(C)(C)C)n1 (centres unmarked) [Compound 52, N^2-(tert-butyl)-N^4-[(1-ethyl-2-pyrrolidinyl)methyl]-N^6-(3-fluoro-4-methoxyphenyl)-1,3,5-triazine-2,4,6-triamine]
- inhibition at 10 µM (heparanase; @ 10 uM): 40 to 60%
- Relative Activity (heparanase): + (0–30% inhibition)
- activity at 10 µM (IL-6 [3]; [5]): 35%
- activity at 10 µM (IL-6 [2]; [4]): 1%

SMILES: CCN1CCCC1CNc1nc(Nc2ccc(OC)c(F)c2)nc(N2CCCCCC2)n1 (centres unmarked) [Compound 58, N^2-[(1-ethyl-2-pyrrolidinyl)methyl]-N^4-(3-fluoro-4-methoxyphenyl)-N^6-hexahydro-1H-azepin-1-yl-1,3,5-triazine-2,4-diamine]
- inhibition at 10 µM (heparanase; @ 10 uM): 40 to 60%
- Relative Activity (heparanase): + (0–30% inhibition)
- activity at 10 µM (IL-6 [3]; [5]): 30%
- activity at 10 µM (IL-6 [2]; [4]): 1%

SMILES: CCN1CCCC1CNc1nc(Nc2ccc(OC)c(F)c2)nc(N2CCC[C@H]2COC)n1 (some centres unmarked) [Compound 61]
- Activity, inhibition of TNF-induced heparanase secretion (heparanase; @ 10 uM): 40–60% inhibition @ 10 uM
- Relative Activity (heparanase): + (0–30% inhibition)
- % IL6 production compare to AGE stimulation of IL6 (100%) (IL-6 [3]; Compds tested @ 10 uM, IL6): 38%
- IC50 (IL-6 [3]): 6.47 µM
- % IL6 production compare to TNF stimulation of IL6 (100%) (IL-6 [2]; Compds tested @ 10 uM, HAEC, IL6): 2%
- Inhibition of TNF-induced IL6 production (IL-6 [2]; HAEC): ++++ (between 0 and about 25% of IL6 production compared to cells that did not receive compound (or per cent of control IL6 production))

SMILES: CCNc1nc(Nc2ccc(OC)c(F)c2)nc(NC2CCCCCC2)n1 [Compound 76, N^2-cycloheptyl-N^4-ethyl-N^6-(3-fluoro-4-methoxyphenyl)-1,3,5-triazine-2,4,6-triamine]
- inhibition at 5 µM (heparanase): 50%
- Relative Activity (heparanase): ++ (30–40% inhibition)
- activity at 10 µM (IL-6 [2]; [4]): 18%

SMILES: COc1ccc(Nc2nc(NC3CCCCCC3)nc(N3CCCC3)n2)cc1F [Compound 82, N^2-cycloheptyl-N^4-(3-fluoro-4-methoxyphenyl)-6-(1-pyrrolidinyl)-1,3,5-triazine-2,4-diamine]
- inhibition at 5 µM (heparanase): 73%
- Relative Activity (heparanase): +++ (70–100% inhibition)
- activity at 10 µM (IL-6 [2]; [4]): 34%

SMILES: COc1ccc(Nc2nc(NC3CCCCCC3)nc(N3CCN(C)CC3)n2)cc1F [Compound 87, N^2-cycloheptyl-N^4-(3-fluoro-4-methoxyphenyl)-6-(4-methyl-1-piperazinyl)-1,3,5-triazine-2,4-diamine]
- inhibition at 10 µM (heparanase; @ 10 uM): 40 to 60%
- Relative Activity (heparanase): + (0–30% inhibition)
- activity at 10 µM (IL-6 [3]; [5]): 5%

SMILES: COc1ccc(Nc2nc(NC3CCCCCC3)nc(N3CCN(CC(=O)N4CCCC4)CC3)n2)cc1F [Compound 94, N^2-cycloheptyl-N^4-(3-fluoro-4-methoxyphenyl)-6-{4-[2-oxo-(1-pyrrolidinyl)ethyl]-1-piperazinyl}-1,3,5-triazine-2,4-diamine]
- inhibition at 10 µM (heparanase; @ 10 uM): 40 to 60%
- Relative Activity (heparanase): + (0–30% inhibition)
- activity at 10 µM (IL-6 [3]; [5]): 10%
- IC50 (IL-6 [3]; Homo sapiens): 5.8 µM
- activity at 10 µM (IL-6 [2]; [4]): 32%

SMILES: COc1ccc(Nc2nc(NC(C)C)nc(N(C)C3CCNCC3)n2)cc1Cl [Compound 107, N^2-(3-chloro-4-methoxy-phenyl)-N^4-isopropyl-N^6-methyl-N^6-piperidin-4-yl-1,3,5-triazine-2,4,6-triamine]
- Inhibition of TNF-induced IL6 production (IL-6 [2]; HAEC): ++ (between about 50 and about 75% of control IL6 production)
- activity at 5 µM (IL-6 [2]; read-out: % IL6 production compare to TNF stimulation of IL6 (100%), @ 5 uM, HAEC, IL6): 60%
- melting point: 129 °C

SMILES: COc1ccc(Nc2nc(NCCCCCO)nc(N(C)C3CCNCC3)n2)cc1Cl [Compound 109, 5-[4-(3-chloro-4-methoxy-phenylamino)-6-(methyl-piperidin-4-yl-amino)-1,3,5-triazin-2-ylamino]-pentan-1-ol]
- Inhibition of TNF-induced IL6 production (IL-6 [2]; HAEC): +++ (between about 25 and about 50% of control IL6 production)
- activity at 10 µM (IL-6 [2]; read-out: % IL6 production compare to TNF stimulation of IL6 (100%), Compds tested @ 10 uM, HAEC, IL6): 40%
- melting point: 101 °C

SMILES: COc1ccc(Nc2nc(Cl)nc(NCC3CCCCC3)n2)cc1F [Compound 125, 6-Chloro-N-cyclohexylmethyl-N′-(3-fluoro-4-methoxy-phenyl)-[1,3,5]triazine-2,4-diamine]
- IC50 ([1]; read-out: Activity (note 1)): > 7 µM
- IC50 ([1]; read-out: Avg IC-50): 10 µM
- melting point: 156 °C

SMILES: COc1ccc(Nc2nc(NC3CCCCCC3)nc(NC3CCN(Cc4ccccc4)CC3)n2)cc1Cl [Compound 134, N-(1-benzyl-piperidin-4-yl)-N′-(3-chloro-4-methoxy-phenyl)-N″-cycloheptyl-[1,3,5]-2,4,6-triamine]
- activity at 5 µM (IL-6 [2]; [6]): 55%
- Toxic (AGE-treated) (endothelial cells; [7]): toxic
- cell death in TNF-stimulated IL6 test (HAEC; HAEC, @ 10 uM): total cell death

SMILES: COc1ccc(Nc2nc(NC3CCCCCC3)nc(NC3CCNCC3)n2)cc1Cl [Compound 135, N^2-(3-chloro-4-methoxy-phenyl)-N^4-cycloheptyl-N^6-piperidin-4-yl-1,3,5-triazine-2,4,6-triamine]
- IC50 ([1]; read-out: Activity (note 1)): 3 to 7 µM
- IC50 ([1]; read-out: Avg IC-50): 5.83 µM
- activity at 5 µM (IL-6 [2]; [6]): 60%
- Toxic (AGE-treated) (endothelial cells; [7]): toxic
- cell death in TNF-stimulated IL6 test (HAEC; HAEC, @ 10 uM): total cell death

SMILES: CN1CCC(N(C)c2nc(Nc3ccc(O)c(Cl)c3)nc(NC3CCCCCC3)n2)CC1 [Compound 138]
- IC50 ([1]; read-out: Activity (note 1)): 3 to 7 µM
- IC50 ([1]; read-out: Avg IC-50): 4.03 µM
- Toxic (AGE-treated) (endothelial cells): toxic

SMILES: COc1ccc(Nc2nc(NC3CCCCCC3)nc(N(C)C3CCNCC3)n2)cc1Cl [Compound 146, N^2-(3-chloro-4-methoxy-phenyl)-N^4-cycloheptyl-N^6-methyl-N^6-piperidin-4-yl-1,3,5-triazine-2,4,6-triamine]
- IC50 ([1]; read-out: Activity (note 1)): < 3 µM
- IC50 ([1]; read-out: Avg IC-50): ~2.2 µM
- melting point: 114 to 116 °C

SMILES: CCN1CCCC1CNc1nc(Nc2ccc(OC)c(Cl)c2)nc(NC2CN3CCC2CC3)n1 (centres unmarked) [Compound 148]
- IC50 ([1]; read-out: Activity (note 1)): 3 to 7 µM
- IC50 ([1]; read-out: Avg IC-50): < 5 µM
- activity at 5 µM (IL-6 [2]; read-out: % IL6 production compare to TNF stimulation of IL6 (100%), HAEC, @ 5 uM): 60%
- Toxic (AGE-treated) (endothelial cells): toxic
- cell death in TNF-stimulated IL6 test (HAEC; human, 24 h, 10 uM): total cell death

SMILES: COc1ccc(Nc2nc(NC3CCCCCC3)nc(N(C)C3CCNCC3)n2)cc1F [Compound 159, N^2-Cycloheptyl-N^4-(3-fluoro-4-methoxy-phenyl)-N^6-methyl-N^6piperidin-4-yl-1,3,5-triazine-2,4,6-triamine]
- IC50 ([1]; read-out: Activity (note 1)): 3 to 7 µM
- IC50 ([1]; read-out: Avg IC-50): 5.7 to 6.9 µM
- Toxic (AGE-treated) (endothelial cells): toxic
- cell death in TNF-stimulated IL6 test (HAEC; human, 24 h, 5 uM): total cell death @ 5 and10 uM
- cell death in TNF-stimulated IL6 test (HAEC; human, 24 h, 10 uM): total cell death @ 5 and10 uM

SMILES: COc1ccc(Nc2nc(NC3CCCCCC3)nc(OCC3CCCN3)n2)cc1Cl (centres unmarked) [Compound E22, N^2-(3-chloro-4-methoxyphenyl)-N^4-cycloheptyl-6-(2-azolanylmethoxy)-1,3,5-triazine-2,4-diamine]
- melting point: 84 to 86 °C

SMILES: COc1ccc(Nc2nc(NC3CCCCCC3)nc(Oc3ccccc3F)n2)cc1Cl [Compound E28, N^2-(3-chloro-4-methoxyphenyl)-N^4-cycloheptyl-6-(2-fluorophenoxy)-1,3,5-triazine-4,2-diamine]
- melting point: 98 to 100 °C
